Assay results: patent publication US20230332230A1, “BIOMARKERS AND USES THEREOF IN THE TREATMENT OF CHRONIC HEPATITIS B INFECTION” (Janssen Sciences Ireland Unlimited Company, priority 2020, published 2023)

Experiments:
Assay type in all cases: in vivo, human
[1] = system: chronic hepatitis B (CHB) patients; assay: Time to clinical relapse after discontinuation of NUC treatment (Cox proportional hazard regression)
From the text: (§1) Patients and Study Design: In this multi-center prospective study in Taiwan, 242 CHB patients were enrolled while in their last half year of a minimum 3-year treatment regimen with direct antivirals. Of them, 47 were excluded due to protocol violation, screening failure, lost to follow-up, withdrawal by the subject, use of immune related therapy, or on-treatment clinical relapse. An additional 14 were excluded as the analysis required patients to be hepatitis B e-antigen (HBeAg) negative, hepatitis virus (HBV) DNA < 60 IU/mL, and alanine transaminase (ALT) < 80 U/L at the last on-treatment visit, leaving 186 patients eligible for analysis.
(§2) Patients were followed for up to two years after treatment discontinuation while assessing virological and clinical relapse, provided that treatment was not re-initiated. Virological relapse was defined as HBV DNA ≥ 2000 IU/mL. Clinical relapse was defined as ALT level ≥ 2x ULN in addition to a virological relapse. A patient was denoted a sustained clinical responder in case no clinical and no virological relapse occurred during the entire follow-up period after treatment cessation.
(§3) Statistical Analysis: Continuous variables are presented as means ± standard deviations, categorical variables by counts and percentages. The Student t test and Fisher exact test were used to compare continuous and categorical covariates, respectively, between groups. Cumulative incidence of virological and clinical relapse after stop of treatment was assessed by Kaplan-Meier curves including the log-rank test. Cox proportional hazard regression analysis was applied for univariate and multivariate models of time to virological and clinical relapse. To assess associations to sustained clinical response, logistic regression analysis was performed. All statistical analyses were executed within the R(3.4.3) statistical software. Statistical tests were two-sided and considered significant at the 0.05 significance level.
(§4) Statistical Analysis of Genetics Data: All the statistical analyses were performed in R (3.4.3). The association between the SNPs and the time to clinical relapse and time to viral relapse was assessed using a Cox proportional hazard model, considering the prior treatment. • Surv(TIME_VIRAL_RELAPSE,STATUS_VIRAL_RELAPSE) ~ GENETIC + LAST_TREATMENT • Surv(TIME_CLINICAL _RELAPSE,STATUS_CLINICAL_RELAPSE) ~ GENETIC + LAST_TREATMENT
(§5) Merge With Genetic Data: For both clinical and virological relapse, the significant clinical covariates (Table 4 and Table 5) are merged with the corresponding significant hits from the GWAS analysis. Cox proportional regression analysis with lasso regularization is applied to assess the combined association of the clinical and genetic covariates to relapse. Note that a threshold was set to the absolute values of the coefficients to be included in the final Cox model, equal to 0.35 and 0.2 for clinical and virological relapse respectively.
(§6) Cumulative incidence of virological and clinical relapse after stop of treatment was assessed by Kaplan-Meier curves. In addition, Cox proportional hazard regression analysis (Therneau Terry M., et al., Statistics in Medicine. 2001, 20(13):2053-2054) was applied, obtaining univariate and multivariate models for time to virological and clinical relapse (model fits are provided in Table 23a and Table 23b for virological and clinical relapse respectively).
(§7) Statistical Analysis of Genetics Data: Considering that HBsAg status at the end of treatment and treatment regimen were predictive for onset of relapse, the association between the SNPs and onset of relapse was assessed using a Cox model^1 including HBsAg level at the last visit on treatment (high (≥ 100 IU/mL) vs. low (< 100 IU/mL)) and the antiviral treatment at enrollment (tenofovir vs. entecavir) as main effects. […]

[2] = system: chronic hepatitis B (CHB) patients; assay: Time to virological relapse after discontinuation of NUC treatment (Cox proportional hazard regression); details: for HR: hazard ratio for virological relapse after stop of treatment, treatment regimen tenofovir vs entecavir
From the text: as §1, §2, §3, §4, §5, §6, §7

[3] = system: chronic hepatitis B (CHB) patients; assay: Sustained clinical response after discontinuation of NUC treatment (logistic regression)
From the text: Patients and Study Design: In this multi-center prospective study in Taiwan, 242 CHB patients were enrolled while in their last half year of a minimum 3-year treatment regimen with direct antivirals. Of them, 47 were excluded due to protocol violation, screening failure, lost to follow-up, withdrawal by the subject, use of immune related therapy, or on-treatment clinical relapse. An additional 14 were excluded as the analysis required patients to be hepatitis B e-antigen (HBeAg) negative, hepatitis virus (HBV) DNA < 60 IU/mL, and alanine transaminase (ALT) < 80 U/L at the last on-treatment visit, leaving 186 patients eligible for analysis. Patients were followed for up to two years after treatment discontinuation while assessing virological and clinical relapse, provided that treatment was not re-initiated. Virological relapse was defined as HBV DNA ≥ 2000 IU/mL. Clinical relapse was defined as ALT level ≥ 2x ULN in addition to a virological relapse. […] Cumulative incidence of virological and clinical relapse after stop of treatment was assessed by Kaplan-Meier curves including the log-rank test. […] Considering that HBsAg status was representative of disease progression, the association between the SNPs and sustained clinical response was assessed using a logistic model, considering HBsAg levels (high (≥ 100 IU/mL) vs. low (< 100 IU/mL)) at the last visit before end of antiviral treatment. […]

[4] = system: chronic hepatitis B (CHB) patients; assay: Logistic regression model predicting clinical relapse before 6 months after stop of treatment; details: Table 12; model with treatment regimen, EOT HBsAg and all SNPs predicting CR
Experimental: Prediction of Clinical Relapse: The receiver operating characteristic (ROC) curve was analyzed for treatment regimen, EOT HBsAg (≥ 100 IU/mL vs < 100 IU/mL), rs4668818, rs948006, rs2934456, rs77586835, rs75876539, rs8050261, rs1542951, rs231770, rs9277535, or a combination of these covariates, in predicting clinical relapse (CR) after stop of treatment.

[5] = system: chronic hepatitis B (CHB) patients; assay: Logistic regression model predicting viral relapse before 3 months after stop of treatment; details: Table 13; model with treatment regimen, EOT HBsAg, baseline HBeAg status and all SNPs predicting VR
Experimental: Prediction of Virological Relapse: The receiver operating characteristic (ROC) curve was analyzed for treatment regimen, EOT HBsAg (≥ 100 IU/mL vs < 100 IU/mL), baseline HBeAg status, all 30 SNPs associated to virological relapse (VR), or a combination of these covariates, in predicting virological relapse (VR) after stop of treatment are represented on FIG. 22 (3 months), FIG. 23 (6 months), FIG. 24 (1 year) and FIG. 25 (2 years).

[6] = later after stopping entecavir treatment compared to tenofovir treatment, Example 1

`C=C1[C@H](CO)[C@@H](O)C[C@@H]1n1cnc2c(=O)[nH]c(N)nc21` [Entecavir, entecavir] was tested, and the “Onset of clinical relapse, average delay” value ([1]; among the 110 clinical relapsers, later after stopping entecavir compared to tenofovir, Example 3) was 100 days, the “Onset of clinical relapse, average delay” value [1, 6] was 115 days and the “Onset of virological relapse, average delay” value [2, 6] was 119 days.
`C[C@H](Cn1cnc2c(N)ncnc21)OCP(=O)(O)O` [Tenofovir, tenofovir] was tested, and the “Clinical relapse, multivariate analysis HR (95% CI)” value ([1]; Table 4, Example 1, Cox regression, treatment regimen vs entecavir, after stop of treatment) was 1.78 (1.20-2.64), the “Clinical relapse, multivariate analysis HR (95% CI)” value ([1]; Table 4, Example 1, Cox regression, treatment regimen vs entecavir, after stop of treatment, listed as tenofovir) was 1.74 and the “Clinical relapse, univariate analysis HR (95% CI)” value ([1]; Table 4, Cox regression, treatment regimen vs entecavir, after stop of treatment, N = 186) was 1.77 (1.19-2.62). The “Time to clinical relapse, lasso regression, mean estimated hazard ratio” value ([1]; Table 10, clinical and genetic covariates, mean across 1000 iterations, vs entecavir) was 1.492, the “Clinical relapse, multivariate analysis HR (95% CI)” value ([1]; Table 23b, Example 3, multivariate with age, EOT HBsAg, vs entecavir) was 1.87 (1.26-2.78) and the “Clinical relapse, multivariate analysis HR (95% CI)” value ([1]; Table 23b, Example 3, multivariate with age, EOT HBsAg, vs entecavir, listed as tenofovir) was 1.80. For the same compound, the “Clinical relapse, univariate analysis HR (95% CI)” value ([1]; Table 23b, Example 3, vs entecavir) was 1.77 (1.19-2.62), the “Clinical relapse HR, Cox model including the Clinical SNP signature” value ([1]; Table 26b, HBsAg and treatment regimen as main effects plus six SNPs, vs entecavir) was 1.89 and the HR ([1]; hazard ratio for clinical relapse after stop of treatment, treatment regimen tenofovir vs entecavir, multivariate Cox model with HBsAg at end of treatment and all nine SNPs) was 1.75. The “Virological relapse, multivariate analysis HR (95% CI)” value ([2]; Table 5, Example 1, Cox regression, treatment regimen vs entecavir, after stop of treatment) was 3.02, the “Virological relapse, univariate analysis HR (95% CI)” value ([2]; Table 5, Cox regression, treatment regimen vs entecavir, after stop of treatment, N = 186) was 2.49 (1.77-3.49) and the “Time to virological relapse, lasso regression, mean estimated hazard ratio” value ([2]; Table 11, clinical and genetic covariates, mean across 1000 iterations, vs entecavir) was 2.662. For the same compound, the “Virological relapse, multivariate analysis HR (95% CI)” value ([2]; Table 23a, Example 3, multivariate with age, baseline HBeAg, EOT HBsAg, vs entecavir) was 2.97 (2.10-4.20), the “Virological relapse, multivariate analysis HR (95% CI)” value ([2]; Table 23a, Example 3, multivariate with age, baseline HBeAg, EOT HBsAg, vs entecavir, listed as tenofovir) was 2.97 and the “Virological relapse, univariate analysis HR (95% CI)” value ([2]; Table 23a, Example 3, vs entecavir) was 2.49 (1.77-3.49). For the same compound, the HR ([2]; multivariate Cox model with HBsAg at end of treatment and all 33 SNPs (Table 27a)) was 7.26, the HR ([2]; multivariate Cox model with HBsAg at end of treatment and the 17 Virological signature SNPs (Table 27b)) was 7.06 and the “Sustained clinical response, univariate analysis OR (95% CI)” value ([3]; Table 6, treatment regimen vs entecavir) was 0.79 (0.29-2.03). For the same compound, the “Sustained clinical response, univariate analysis OR (95% CI)” value ([3]; Table 15, Example 2, vs entecavir) was 0.79 (0.29-2.03), the “Clinical relapse before 6 months, odds ratio (Estimate)” value [4] was 4.008 and the “Viral relapse before 3 months, odds ratio (Estimate)” value [5] was 3010.
